{
  "source": "patent US10118935B2",
  "about": "“Melampomagnolide B dimers” (priority 2014, dated 2018)",
  "key": {"DU-145 [1]": {"system": "DU-145", "assay": "NCI 60 cell line five dose, Prostate Cancer"}, "HS 578T [2]": {"system": "HS 578T"}, "SK-OV-3 [3]": {"system": "SK-OV-3"}, "TK-10": {"system": "TK-10", "assay": "NCI 60 cell line five dose, Renal Cancer"}, "UO-31 [4]": {"system": "UO-31", "assay": "NCI 60 cell line five dose, Renal Cancer"}, "HOP-92 [5]": {"system": "HOP-92"}, "DU-145 [6]": {"system": "DU-145"}, "HT29": {"system": "HT29", "assay": "NCI 60 cell line five dose, Colon Cancer"}, "UO-31 [7]": {"system": "UO-31"}, "ACHN": {"system": "ACHN", "assay": "NCI 60 cell line five dose, Renal Cancer"}, "HS 578T [8]": {"system": "HS 578T", "assay": "NCI 60 cell line five dose, Breast Cancer", "settings": "HS 578T"}, "MOLT-4": {"system": "MOLT-4", "assay": "NCI 60 cell line five dose, Leukemia"}, "NCI/ADR-RES": {"system": "NCI/ADR-RES", "assay": "NCI 60 cell line five dose, Ovarian Cancer", "settings": "NCI/ADR-RES"}, "HOP-92 [9]": {"system": "HOP-92", "assay": "NCI 60 cell line five dose, Non-Small Cell Lung Cancer"}, "UACC-257": {"system": "UACC-257", "assay": "NCI 60 cell line five dose, Melanoma"}, "SK-OV-3 [10]": {"system": "SK-OV-3", "assay": "NCI 60 cell line five dose, Ovarian Cancer"}},
  "data": [
    {"smiles": "C=C1C(=O)O[C@H]2[C@H]1CC/C(COC(=O)CCC(=O)NCCCCCCCCCNC(=O)CCC(=O)OC/C1=C/CC[C@@]3(C)O[C@H]3[C@H]3OC(=O)C(=C)[C@@H]3CC1)=C\\CC[C@@]1(C)O[C@@H]21", "note": "[JVM 2-92, bis(((1aR,7aS,10aS,10bS,E)-1a-Methyl-8-methylene-9-oxo-1a,2,3,6,7,7a,8,9,10a,10b-decahydrooxireno[2′,3′:9,10]cyclodeca[1,2-b]furan-5-yl)methyl)4,4′-(nonane-1,9-diylbis(azanediyl))bis (4-oxobutanoate)]", "values": [
      {"measurement": "CC50", "setting": "NCI-H226", "result": 8.6, "unit": "µM"},
      {"measurement": "CC50", "setting": "MDA-MB-231/ATCC", "result": 13.3, "unit": "µM"},
      {"measurement": "GI50", "setting": "DU-145 [1]", "result": 1.75, "unit": "µM"},
      {"measurement": "TGI", "setting": "DU-145 [1]", "result": 3.18, "unit": "µM"},
      {"measurement": "CC50", "setting": "OVCAR-8", "result": "> 100", "unit": "µM"},
      {"measurement": "CC50", "setting": "SR", "result": "> 100", "unit": "µM"},
      {"measurement": "CC50", "setting": "HS 578T [2]", "result": "> 100", "unit": "µM"},
      {"measurement": "CC50", "setting": "A549/ATCC", "result": 82.6, "unit": "µM"},
      {"measurement": "CC50", "setting": "HCT-15", "result": 46, "unit": "µM"},
      {"measurement": "CC50", "setting": "SK-OV-3 [3]", "result": 49.1, "unit": "µM"},
      {"measurement": "GI50", "setting": "TK-10", "result": 1.78, "unit": "µM"},
      {"measurement": "TGI", "setting": "TK-10", "result": 3.28, "unit": "µM"},
      {"measurement": "CC50", "setting": "MDA-MB-435", "result": 7.25, "unit": "µM"},
      {"measurement": "GI50", "setting": "UO-31 [4]", "result": 3.9, "unit": "µM"},
      {"measurement": "TGI", "setting": "UO-31 [4]", "result": 16.1, "unit": "µM"},
      {"measurement": "CC50", "setting": "OVCAR-3", "result": 5.3, "unit": "µM"},
      {"measurement": "CC50", "setting": "SK-MEL-28", "result": 6.22, "unit": "µM"},
      {"measurement": "CC50", "setting": "SK-MEL-2", "result": 8.13, "unit": "µM"},
      {"measurement": "CC50", "setting": "RPMI-8226", "result": "> 100", "unit": "µM"},
      {"measurement": "CC50", "setting": "HOP-92 [5]", "result": 6.64, "unit": "µM"},
      {"measurement": "CC50", "setting": "DU-145 [6]", "result": 5.78, "unit": "µM"},
      {"measurement": "GI50", "setting": "HL-60(TB)", "result": 0.44, "unit": "µM"},
      {"measurement": "TGI", "setting": "HL-60(TB)", "result": 2.13, "unit": "µM"},
      {"measurement": "CC50", "setting": "HL-60(TB); read-out: LC50", "result": "> 100", "unit": "µM"},
      {"measurement": "GI50", "setting": "HT29", "result": 1.33, "unit": "µM"},
      {"measurement": "TGI", "setting": "HT29", "result": 2.75, "unit": "µM"},
      {"measurement": "CC50", "setting": "OVCAR-4", "result": 8.06, "unit": "µM"},
      {"measurement": "CC50", "setting": "CCRF-CEM", "result": "> 100", "unit": "µM"},
      {"measurement": "CC50", "setting": "UO-31 [7]", "result": 45.6, "unit": "µM"},
      {"measurement": "GI50", "setting": "ACHN", "result": 2.1, "unit": "µM"},
      {"measurement": "TGI", "setting": "ACHN", "result": 5.16, "unit": "µM"},
      {"measurement": "CC50", "setting": "HCC-2998", "result": 9.82, "unit": "µM"},
      {"measurement": "CC50", "setting": "K-562", "result": "> 100", "unit": "µM"},
      {"measurement": "GI50", "setting": "HS 578T [8]", "result": 2.99, "unit": "µM"},
      {"measurement": "TGI", "setting": "HS 578T [8]", "result": 24.9, "unit": "µM"},
      {"measurement": "CC50", "setting": "MALME-3M", "result": 8.93, "unit": "µM"},
      {"measurement": "CC50", "setting": "SF-539", "result": 9.95, "unit": "µM"},
      {"measurement": "CC50", "setting": "SF-268", "result": 42.4, "unit": "µM"},
      {"measurement": "GI50", "setting": "MOLT-4", "result": 0.64, "unit": "µM"},
      {"measurement": "TGI", "setting": "MOLT-4", "result": 4.20, "unit": "µM"},
      {"measurement": "GI50", "setting": "NCI/ADR-RES", "result": 26.7, "unit": "µM"},
      {"measurement": "TGI", "setting": "NCI/ADR-RES", "result": ">100", "unit": "µM"},
      {"measurement": "GI50", "setting": "HOP-92 [9]", "result": 1.4, "unit": "µM"},
      {"measurement": "TGI", "setting": "HOP-92 [9]", "result": 3.05, "unit": "µM"},
      {"measurement": "GI50", "setting": "UACC-257", "result": 2.06, "unit": "µM"},
      {"measurement": "TGI", "setting": "UACC-257", "result": 5.59, "unit": "µM"},
      {"measurement": "CC50", "setting": "KM12", "result": 50.2, "unit": "µM"},
      {"measurement": "CC50", "setting": "M14", "result": 8.05, "unit": "µM"},
      {"measurement": "GI50", "setting": "SK-OV-3 [10]", "result": 5.8, "unit": "µM"},
      {"measurement": "TGI", "setting": "SK-OV-3 [10]", "result": 19.2, "unit": "µM"}
    ]}
  ]
}
